What was measured:
Type in all cases: in vivo
[1] = tested on: redroot pigweed (Amaranthus retroflexus, AMARE); assay: Pre-emerge test, greenhouse herbicide activity screening; settings: pre-emerge; for phytotoxicity rating AMARE: 14 days after application, scale 0-100; for Pre-emerge Herbicidal Activity AMARE: phytotoxicity rating 0-100 at 14 days after application
Summary of the method: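 Visual ratings on a 0-100 scale (0 no damage, 100 all plants dead) were taken at 14 days after treatment. Rates of 15-1000 g ai/ha in acetone, 187 l/ha, were sprayed onto soil one day after planting (pre-emerge) or onto 2-3 leaf plants with 0.25% v/v surfactant (post-emerge).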

[2] = tested on: upland rice (Oryza sp., var. Tebonnet, RICE); assay: Post-emerge test, crop safety; settings: post-emerge; for RICE phytotoxicity rating (crop damage): 14 days after application, rating scale 0-100; for Post-emerge Herbicidal Activity RICE: crop damage rating 0-100 at 14 days after application
Summary of the method: (§1)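 Each test used a mechanized track sprayer delivering 187 l/ha of acetone solution at 15–1000 g ai/ha. Post-emerge foliage at 2–3 leaves was treated with added 0.25% v/v non-ionic surfactant and bottom-watered only. Injury was assessed on day 14, where 100 means total kill.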

[3] = tested on: field corn (Zea mays L., var. Dekalb 535, CORN); assay: Post-emerge test, crop safety; settings: post-emerge; for CORN phytotoxicity rating (crop damage): 14 days after application, rating scale 0-100; for Post-emerge Herbicidal Activity CORN: crop damage rating 0-100 at 14 days after application
Summary of the method: as §1

[4] = tested on: upland rice (Oryza sp., var. Tebonnet, RICE); assay: Pre-emerge test, crop safety; settings: pre-emerge; for phytotoxicity rating RICE (crop damage): 14 days after application, scale 0-100; for Pre-emerge Herbicidal Activity RICE: crop damage, phytotoxicity rating 0-100 at 14 days after application
Summary of the method: (§2)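 Fourteen days after spraying, crop and weed injury was graded visually from 0, no effect, to 100, every plant dead. Test substances were dissolved in acetone and applied at 15–1000 g ai/ha with a flat-fan nozzle. Application was either pre-emergence, one day after sowing, or post-emergence at the 2–3 leaf stage.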

[5] = tested on: field corn (Zea mays L., var. Dekalb 535, CORN); assay: Pre-emerge test, crop safety; settings: pre-emerge; for phytotoxicity rating CORN (crop damage): 14 days after application, scale 0-100; for Pre-emerge Herbicidal Activity CORN: crop damage, phytotoxicity rating 0-100 at 14 days after application
Summary of the method: as §2

[6] = tested on: large crabgrass (Digitaria sanguinalis, DIGSA); assay: Pre-emerge test, greenhouse herbicide activity screening; settings: pre-emerge; for phytotoxicity rating DIGSA: 14 days after application, scale 0-100; for Pre-emerge Herbicidal Activity DIGSA: phytotoxicity rating 0-100 at 14 days after application
Summary of the method: (§3)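 Plants grown in 10 cm pots of sandy loam mix received acetone-dissolved compounds through a moving flat-fan nozzle. Doses ranged from 15 to 1000 g ai/ha. Pre-emerge pots were seeded one day earlier, post-emerge pots 8–21 days earlier. Fourteen days on, each pot was graded 0–100 for damage.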

[7] = tested on: lambsquarters (Chenopodium album, CHEAL); assay: as above; settings: pre-emerge; for phytotoxicity rating CHEAL: 14 days after application, scale 0-100; for Pre-emerge Herbicidal Activity CHEAL: phytotoxicity rating 0-100 at 14 days after application
Summary of the method: as §3

[8] = tested on: velvetleaf (Abutilon theophrasti, ABUTH); assay: as above; settings: pre-emerge; for phytotoxicity rating ABUTH: 14 days after application, scale 0-100; for Pre-emerge Herbicidal Activity ABUTH: phytotoxicity rating 0-100 at 14 days after application
Summary of the method: as §3

[9] = tested on: sicklepod (Cassia obtusifolia, CASOB); assay: as above; settings: pre-emerge; for phytotoxicity rating CASOB: 14 days after application, scale 0-100; for Pre-emerge Herbicidal Activity CASOB: phytotoxicity rating 0-100 at 14 days after application
Summary of the method: as §3

[10] = tested on: green foxtail (Setaria viridis, SETVI); assay: as above; settings: pre-emerge; for phytotoxicity rating SETVI: 14 days after application, scale 0-100; for Pre-emerge Herbicidal Activity SETVI: phytotoxicity rating 0-100 at 14 days after application
Summary of the method: as §3

[11] = tested on: barnyardgrass (Echinochloa crus-galli, ECHCG); assay: as above; settings: pre-emerge; for phytotoxicity rating ECHCG: 14 days after application, scale 0-100; for Pre-emerge Herbicidal Activity ECHCG: phytotoxicity rating 0-100 at 14 days after application
Summary of the method: as §3

[12] = tested on: johnsongrass (Sorghum halepense, SORHA); assay: as above; settings: pre-emerge; for phytotoxicity rating SORHA: 14 days after application, scale 0-100; for Pre-emerge Herbicidal Activity SORHA: phytotoxicity rating 0-100 at 14 days after application
Summary of the method: as §3

[13] = tested on: ivyleaf morningglory (Ipomoea hederacea, IPOHE); assay: as above; settings: pre-emerge; for phytotoxicity rating IPOHE: 14 days after application, scale 0-100; for Pre-emerge Herbicidal Activity IPOHE: phytotoxicity rating 0-100 at 14 days after application
Summary of the method: as §3

[14] = tested on: large crabgrass (Digitaria sanguinalis, DIGSA); assay: Post-emerge test, greenhouse herbicide activity screening; settings: post-emerge; for DIGSA phytotoxicity rating: 14 days after application, rating scale 0-100; for Post-emerge Herbicidal Activity DIGSA: phytotoxicity rating 0-100 at 14 days after application
Summary of the method: (§4)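 Compounds in acetone were track-sprayed at 15–1000 g ai/ha: pre-emergence onto soil sown the previous day, then top-watered to incorporate and later bottom-watered; post-emergence onto 2–3 leaf plants with 0.25% v/v surfactant, bottom-watered only. Ratings on a 0–100 phytotoxicity scale were taken at day 14.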

[15] = tested on: redroot pigweed (Amaranthus retroflexus, AMARE); assay: as above; settings: post-emerge; for AMARE phytotoxicity rating: 14 days after application, rating scale 0-100; for Post-emerge Herbicidal Activity AMARE: phytotoxicity rating 0-100 at 14 days after application
Summary of the method: as §4

[16] = tested on: lambsquarters (Chenopodium album, CHEAL); assay: as above; settings: post-emerge; for CHEAL phytotoxicity rating: 14 days after application, rating scale 0-100; for Post-emerge Herbicidal Activity CHEAL: phytotoxicity rating 0-100 at 14 days after application
Summary of the method: as §4

[17] = tested on: velvetleaf (Abutilon theophrasti, ABUTH); assay: as above; settings: post-emerge; for ABUTH phytotoxicity rating: 14 days after application, rating scale 0-100; for Post-emerge Herbicidal Activity ABUTH: phytotoxicity rating 0-100 at 14 days after application
Summary of the method: as §4

[18] = tested on: sicklepod (Cassia obtusifolia, CASOB); assay: as above; settings: post-emerge; for CASOB phytotoxicity rating: 14 days after application, rating scale 0-100; for Post-emerge Herbicidal Activity CASOB: phytotoxicity rating 0-100 at 14 days after application
Summary of the method: as §4

[19] = tested on: green foxtail (Setaria viridis, SETVI); assay: as above; settings: post-emerge; for SETVI phytotoxicity rating: 14 days after application, rating scale 0-100; for Post-emerge Herbicidal Activity SETVI: phytotoxicity rating 0-100 at 14 days after application
Summary of the method: as §4

[20] = tested on: barnyardgrass (Echinochloa crus-galli, ECHCG); assay: as above; settings: post-emerge; for ECHCG phytotoxicity rating: 14 days after application, rating scale 0-100; for Post-emerge Herbicidal Activity ECHCG: phytotoxicity rating 0-100 at 14 days after application
Summary of the method: as §4

[21] = tested on: johnsongrass (Sorghum halepense, SORHA); assay: as above; settings: post-emerge; for SORHA phytotoxicity rating: 14 days after application, rating scale 0-100; for Post-emerge Herbicidal Activity SORHA: phytotoxicity rating 0-100 at 14 days after application
Summary of the method: as §4

[22] = tested on: ivyleaf morningglory (Ipomoea hederacea, IPOHE); assay: as above; settings: post-emerge; for IPOHE phytotoxicity rating: 14 days after application, rating scale 0-100; for Post-emerge Herbicidal Activity IPOHE: phytotoxicity rating 0-100 at 14 days after application
Summary of the method: as §4

COc1c(Br)cc(F)c(-n2c(=O)cc(C(F)(F)F)n(C)c2=O)c1NC(=O)C=Cc1ccccc1 [2-175]
50: RICE phytotoxicity rating (crop damage) ([2]; 63 g ai/ha) | phytotoxicity rating IPOHE ([13]; 250 g ai/ha)
80: RICE phytotoxicity rating (crop damage) ([2]; 250 g ai/ha)
20: phytotoxicity rating RICE (crop damage) ([4]; 63 g ai/ha) | SETVI phytotoxicity rating ([19]; 250 g ai/ha) | ECHCG phytotoxicity rating ([20]; 250 g ai/ha)
40: phytotoxicity rating RICE (crop damage) ([4]; 250 g ai/ha) | phytotoxicity rating ECHCG ([11]; 250 g ai/ha)
0: phytotoxicity rating CORN (crop damage) ([5]; 63 g ai/ha) | phytotoxicity rating CORN (crop damage) ([5]; 250 g ai/ha) | phytotoxicity rating DIGSA ([6]; 63 g ai/ha) | phytotoxicity rating SETVI ([10]; 63 g ai/ha) | phytotoxicity rating ECHCG ([11]; 63 g ai/ha) | phytotoxicity rating SORHA ([12]; 63 g ai/ha) | DIGSA phytotoxicity rating ([14]; 63 g ai/ha) | SETVI phytotoxicity rating ([19]; 63 g ai/ha) | ECHCG phytotoxicity rating ([20]; 63 g ai/ha) | SORHA phytotoxicity rating ([21]; 63 g ai/ha)
60: phytotoxicity rating DIGSA ([6]; 250 g ai/ha) | phytotoxicity rating SETVI ([10]; 250 g ai/ha)
10: CORN phytotoxicity rating (crop damage) ([3]; 63 g ai/ha) | CORN phytotoxicity rating (crop damage) ([3]; 250 g ai/ha) | DIGSA phytotoxicity rating ([14]; 250 g ai/ha) | SORHA phytotoxicity rating ([21]; 250 g ai/ha)
100: phytotoxicity rating AMARE ([1]; 63 g ai/ha) | phytotoxicity rating AMARE ([1]; 250 g ai/ha) | phytotoxicity rating CHEAL ([7]; 63 g ai/ha) | phytotoxicity rating CHEAL ([7]; 250 g ai/ha) | phytotoxicity rating ABUTH ([8]; 63 g ai/ha) | phytotoxicity rating ABUTH ([8]; 250 g ai/ha) | AMARE phytotoxicity rating ([15]; 63 g ai/ha) | AMARE phytotoxicity rating ([15]; 250 g ai/ha) | CHEAL phytotoxicity rating ([16]; 63 g ai/ha) | CHEAL phytotoxicity rating ([16]; 250 g ai/ha) | ABUTH phytotoxicity rating ([17]; 63 g ai/ha) | ABUTH phytotoxicity rating ([17]; 250 g ai/ha) | CASOB phytotoxicity rating ([18]; 63 g ai/ha) | CASOB phytotoxicity rating ([18]; 250 g ai/ha) | IPOHE phytotoxicity rating ([22]; 63 g ai/ha) | IPOHE phytotoxicity rating ([22]; 250 g ai/ha)
70: phytotoxicity rating IPOHE ([13]; 63 g ai/ha)
30: phytotoxicity rating CASOB ([9]; 63 g ai/ha) | phytotoxicity rating CASOB ([9]; 250 g ai/ha) | phytotoxicity rating SORHA ([12]; 250 g ai/ha)

Nc1c(OC2CCCC2)c(Cl)cc(F)c1N1C(=O)C2=C(CCCC2)C1=O [Compound 8-5, N-(2-amino-4-chloro-3-cyclopentyloxy-6-fluorophenyl)tetrahydrophthalimide]
80: Pre-emerge Herbicidal Activity CHEAL ([7]; rate 250 g ai/ha)
70: Pre-emerge Herbicidal Activity ABUTH ([8]; rate 250 g ai/ha) | Pre-emerge Herbicidal Activity SETVI ([10]; rate 63 g ai/ha) | Post-emerge Herbicidal Activity CHEAL ([16]; 63 g ai/ha) | Post-emerge Herbicidal Activity CHEAL ([16]; 250 g ai/ha) | Post-emerge Herbicidal Activity ABUTH ([17]; 63 g ai/ha)
95: Pre-emerge Herbicidal Activity AMARE ([1]; rate 250 g ai/ha)
50: Post-emerge Herbicidal Activity RICE ([2]; 250 g ai/ha)
0: Post-emerge Herbicidal Activity CORN ([3]; 63 g ai/ha) | Post-emerge Herbicidal Activity CORN ([3]; 250 g ai/ha) | Pre-emerge Herbicidal Activity RICE ([4]; rate 63 g ai/ha) | Pre-emerge Herbicidal Activity RICE ([4]; rate 250 g ai/ha) | Pre-emerge Herbicidal Activity CORN ([5]; rate 63 g ai/ha) | Pre-emerge Herbicidal Activity CORN ([5]; rate 250 g ai/ha) | Pre-emerge Herbicidal Activity DIGSA ([6]; rate 63 g ai/ha) | Pre-emerge Herbicidal Activity DIGSA ([6]; rate 250 g ai/ha) | Pre-emerge Herbicidal Activity CHEAL ([7]; rate 63 g ai/ha) | Pre-emerge Herbicidal Activity ABUTH ([8]; rate 63 g ai/ha) | Pre-emerge Herbicidal Activity CASOB ([9]; rate 63 g ai/ha) | Pre-emerge Herbicidal Activity ECHCG ([11]; rate 63 g ai/ha) | Pre-emerge Herbicidal Activity ECHCG ([11]; rate 250 g ai/ha) | Pre-emerge Herbicidal Activity SORHA ([12]; rate 63 g ai/ha) | Pre-emerge Herbicidal Activity IPOHE ([13]; rate 63 g ai/ha) | Pre-emerge Herbicidal Activity IPOHE ([13]; rate 250 g ai/ha) | Post-emerge Herbicidal Activity DIGSA ([14]; 63 g ai/ha) | Post-emerge Herbicidal Activity DIGSA ([14]; 250 g ai/ha) | Post-emerge Herbicidal Activity CASOB ([18]; 63 g ai/ha) | Post-emerge Herbicidal Activity SETVI ([19]; 63 g ai/ha) | Post-emerge Herbicidal Activity ECHCG ([20]; 63 g ai/ha) | Post-emerge Herbicidal Activity ECHCG ([20]; 250 g ai/ha) | Post-emerge Herbicidal Activity SORHA ([21]; 63 g ai/ha) | Post-emerge Herbicidal Activity SORHA ([21]; 250 g ai/ha) | Post-emerge Herbicidal Activity IPOHE ([22]; 63 g ai/ha)
10: Post-emerge Herbicidal Activity CASOB ([18]; 250 g ai/ha)
20: Pre-emerge Herbicidal Activity SORHA ([12]; rate 250 g ai/ha) | Post-emerge Herbicidal Activity SETVI ([19]; 250 g ai/ha)
40: Pre-emerge Herbicidal Activity AMARE ([1]; rate 63 g ai/ha) | Post-emerge Herbicidal Activity RICE ([2]; 63 g ai/ha) | Pre-emerge Herbicidal Activity CASOB ([9]; rate 250 g ai/ha) | Post-emerge Herbicidal Activity AMARE ([15]; 63 g ai/ha) | Post-emerge Herbicidal Activity IPOHE ([22]; 250 g ai/ha)
100: Post-emerge Herbicidal Activity AMARE ([15]; 250 g ai/ha)
90: Pre-emerge Herbicidal Activity SETVI ([10]; rate 250 g ai/ha) | Post-emerge Herbicidal Activity ABUTH ([17]; 250 g ai/ha)

From US6355799B1, “Substituted benzene compounds, process for their preparation, and herbicidal and defoliant compositions containing them” (ISK Americas Incorporated, priority 1997, dated 2002)
